Measured values from patent US11535643B2, “Macrolides with modified desosamine sugars and uses thereof” (President and Fellows of Harvard College, priority 2015, dated 2022).
In brackets after ≈: the same amount, converted by molar mass.

Columns and labels:
Format in all cases: cell-based
S. aureus = assay: Broth dilution MIC determination (CLSI) against S. aureus strains; settings: for MIC S. aureus ATCC29213: ATCC29213, Strain No. MP-12; for MIC S. aureus ATCCBAA-977: ATCCBAA-977, Strain No. MP-17; for MIC S. aureus (MRSA) GISA USA600: GISA USA600, Strain No. MP-619 UNT-120; for MIC S. aureus (MRSA) ST-228 cErm: Strain No. MP-513; for MIC S. aureus (MRSA) USA100: USA100, Strain No. MP-618 UNT-096; for MIC S. aureus (MRSA) USA300: USA300, Strain No. MP-549; for MIC S. aureus (MRSA) ermA phenotype: Strain No. MP-620 UNT-146
Excerpt: (§1) Minimum inhibitory concentrations (MICs) for macrolides described herein have been determined for unique strains of S. aureus, S. pneumoniae, S. pyogenes, E. faecalis, E. coli, A. baumannii, K. pneumoniae, P. aeruginosa, and H. influenzae, including several multidrug-resistant strains, with a special focus on macrolide resistant mechanisms. Azithromycin and solithromycin were included as control compounds. CLSI standard procedures for broth dilution MIC determination were used. Data for exemplary compounds described herein is shown in Tables M1-M7 and in Tables N1-N4.

A. baumannii = assay: Broth dilution MIC determination (CLSI) against A. baumannii strains; settings: for MIC A. baumannii ATCC19606: ATCC19606, Strain No. MP-15
Excerpt: as §1

S. pneumoniae = assay: Broth dilution MIC determination (CLSI) against S. pneumoniae strains; settings: for MIC S. pneumoniae ATCC49619: ATCC49619, Strain No. MP-21
Excerpt: as §1

E. coli = assay: Broth dilution MIC determination (CLSI) against E. coli strains; settings: for MIC E. coli ATCC25922: ATCC25922, Strain No. MP-4; for MIC E. coli ATCC25922:tolC: Strain No. MP-9; for MIC E. coli clinical: Strain No. MP541; for MIC E. coli clinical-cErm: Strain No. MP532
Excerpt: as §1

S. pyogenes = assay: Broth dilution MIC determination (CLSI) against S. pyogenes strains; settings: for MIC S. pyogenes ATCC19615: ATCC19615, Strain No. MP-19; for MIC S. pyogenes mac resistant: Strain No. MP-625 UNT-014
Excerpt: as §1

E. faecalis = assay: Broth dilution MIC determination (CLSI) against E. faecalis strains; settings: for MIC E. faecalis ATCC29212: ATCC29212, Strain No. MP-24; for MIC E. faecalis van resistant: Strain No. UNT-039
Excerpt: as §1

P. aeruginosa = assay: Broth dilution MIC determination (CLSI) against P. aeruginosa strains; settings: for MIC P. aeruginosa ATCC27853: ATCC27853, Strain No. MP-3; for MIC P. aeruginosa PAO1: PAO1, Strain No. MP-7; for MIC P. aeruginosa PAO1:mex: Strain No. MP-8
Excerpt: as §1

K. pneumoniae = assay: Broth dilution MIC determination (CLSI) against K. pneumoniae strains; settings: for MIC K. pneumoniae ATCC10031: ATCC10031, Strain No. MP-14
Excerpt: Minimum inhibitory concentrations (MICs) for macrolides described herein have been determined for unique strains of S. aureus, S. pneumoniae, S. pyogenes, E. faecalis, E. coli, A. baumannii, K. pneumoniae, P. aeruginosa, and H. influenzae, including several multidrug-resistant strains, with a special focus on macrolide resistant mechanisms. Azithromycin and solithromycin were included as control compounds. CLSI standard procedures for broth dilution MIC determination were used.

CCC1OC(=O)C(C)C(=O)C(C)C(OC2OC(C)CC(N3CCOCC3)C2O)C(C)(OC)CC(C)CNC(C)C2N(CCCCn3cc(-c4cccc(N)c4)nn3)C(=O)OC12C (stereo not drawn) [FSM-120367]
MIC S. aureus ATCC29213 (S. aureus): >64 µg/mL | MIC S. aureus ATCCBAA-977 (S. aureus): >64 µg/mL | MIC S. aureus (MRSA) GISA USA600 (S. aureus): >64 µg/mL | MIC S. aureus (MRSA) ST-228 cErm (S. aureus): >64 µg/mL | MIC S. aureus (MRSA) USA100 (S. aureus): >64 µg/mL | MIC S. aureus (MRSA) USA300 (S. aureus): >64 µg/mL | MIC S. aureus (MRSA) ermA phenotype (S. aureus): >64 µg/mL | MIC A. baumannii ATCC19606 (A. baumannii): >64 µg/mL | MIC A. baumannii clinical (A. baumannii; Strain No. MP576): >64 µg/mL | MIC A. baumannii clinical (A. baumannii; Strain No. MP577): >64 µg/mL | MIC S. pneumoniae ATCC49619 (S. pneumoniae): 32 µg/mL (≈ 36.8 µM) | MIC S. pneumoniae mefA (S. pneumoniae; Strain No. MP-626 UNT-038): 16 µg/mL (≈ 18.4 µM) | MIC S. pneumoniae mefA (S. pneumoniae; Strain No. MP-627 UNT-039): 16 µg/mL (≈ 18.4 µM) | MIC E. coli ATCC25922 (E. coli): >64 µg/mL | MIC E. coli ATCC25922:tolC (E. coli): >64 µg/mL | MIC E. coli clinical (E. coli): >64 µg/mL | MIC E. coli clinical-cErm (E. coli): >64 µg/mL | MIC S. pyogenes ATCC19615 (S. pyogenes): 8 µg/mL (≈ 9.19 µM) | MIC S. pyogenes mac resistant (S. pyogenes): 64 µg/mL (≈ 73.6 µM) | MIC E. faecalis ATCC29212 (E. faecalis): 64 µg/mL (≈ 73.6 µM) | MIC E. faecalis van resistant (E. faecalis): >64 µg/mL | MIC P. aeruginosa ATCC27853 (P. aeruginosa): >64 µg/mL | MIC P. aeruginosa PAO1 (P. aeruginosa): >64 µg/mL | MIC P. aeruginosa PAO1:mex (P. aeruginosa): >64 µg/mL | MIC K. pneumoniae ATCC10031 (K. pneumoniae): >64 µg/mL | MIC K. pneumoniae clinical (K. pneumoniae; Strain No. MP546): >64 µg/mL | MIC K. pneumoniae clinical (K. pneumoniae; Strain No. MP548): >64 µg/mL

CCC1OC(=O)C(C)C(=O)C(C)C(OC2OC(C)CC(NCC(=O)O)C2O)C(C)(OC)CC(C)CNC(C)C2N(CCCCn3cc(-c4cccc(N)c4)nn3)C(=O)OC12C (stereo not drawn) [FSM-120368]
MIC S. aureus ATCC29213 (S. aureus): >64 µg/mL | MIC S. aureus ATCCBAA-977 (S. aureus): >64 µg/mL | MIC S. aureus (MRSA) GISA USA600 (S. aureus): >64 µg/mL | MIC S. aureus (MRSA) ST-228 cErm (S. aureus): >64 µg/mL | MIC S. aureus (MRSA) USA100 (S. aureus): >64 µg/mL | MIC S. aureus (MRSA) USA300 (S. aureus): >64 µg/mL | MIC S. aureus (MRSA) ermA phenotype (S. aureus): >64 µg/mL | MIC A. baumannii ATCC19606 (A. baumannii): >64 µg/mL | MIC A. baumannii clinical (A. baumannii; Strain No. MP576): >64 µg/mL | MIC A. baumannii clinical (A. baumannii; Strain No. MP577): >64 µg/mL | MIC S. pneumoniae ATCC49619 (S. pneumoniae): 16 µg/mL (≈ 18.6 µM) | MIC S. pneumoniae mefA (S. pneumoniae; Strain No. MP-626 UNT-038): 16 µg/mL (≈ 18.6 µM) | MIC S. pneumoniae mefA (S. pneumoniae; Strain No. MP-627 UNT-039): 8 µg/mL (≈ 9.32 µM) | MIC E. coli ATCC25922 (E. coli): >64 µg/mL | MIC E. coli ATCC25922:tolC (E. coli): >64 µg/mL | MIC E. coli clinical (E. coli): >64 µg/mL | MIC E. coli clinical-cErm (E. coli): >64 µg/mL | MIC S. pyogenes ATCC19615 (S. pyogenes): 8 µg/mL (≈ 9.32 µM) | MIC S. pyogenes mac resistant (S. pyogenes): 32 µg/mL (≈ 37.3 µM) | MIC E. faecalis ATCC29212 (E. faecalis): >64 µg/mL | MIC E. faecalis van resistant (E. faecalis): >64 µg/mL | MIC P. aeruginosa ATCC27853 (P. aeruginosa): >64 µg/mL | MIC P. aeruginosa PAO1 (P. aeruginosa): >64 µg/mL | MIC P. aeruginosa PAO1:mex (P. aeruginosa): >64 µg/mL | MIC K. pneumoniae ATCC10031 (K. pneumoniae): >64 µg/mL | MIC K. pneumoniae clinical (K. pneumoniae; Strain No. MP546): >64 µg/mL | MIC K. pneumoniae clinical (K. pneumoniae; Strain No. MP548): >64 µg/mL
